Data published in PubChem BioAssay (NCI).
Where “and” joins values, the source holds several entries; their conditions need not be identical. Identical values can stand only once.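 Following 48 hours of exposure in 96-well plates, responses at five concentrations were used to interpolate endpoints linearly. Abbreviation: GI50, concentration required for 50% inhibition of growth. At the TGI there is no net growth.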

Key:
Experiment in all cases: DTP human tumour cell line panel, 48 h
786-0 renal = system: 786-0 renal
A498 renal = system: A498 renal
A549 NSCLC = system: A549 NSCLC
ACHN renal = system: ACHN renal
BT-549 breast = system: BT-549 breast
CAKI-1 renal = system: CAKI-1 renal
CCRF-CEM leukemia = system: CCRF-CEM leukemia
COLO 205 colon = system: COLO 205 colon
EKVX NSCLC = system: EKVX NSCLC
HCC-2998 colon = system: HCC-2998 colon
HCT-15 colon = system: HCT-15 colon
HL-60(TB) leukemia = system: HL-60(TB) leukemia
HOP-62 NSCLC = system: HOP-62 NSCLC
HOP-92 NSCLC = system: HOP-92 NSCLC
HS 578T breast = system: HS 578T breast
HT29 colon = system: HT29 colon
IGROV1 ovarian = system: IGROV1 ovarian
K-562 leukemia = system: K-562 leukemia
KM12 colon = system: KM12 colon
LOX IMVI melanoma = system: LOX IMVI melanoma
M14 melanoma = system: M14 melanoma
MALME-3M melanoma = system: MALME-3M melanoma
MCF7 breast = system: MCF7 breast
MDA-MB-231 breast = system: MDA-MB-231 breast
MDA-MB-435 = system: MDA-MB-435
MDA-N = system: MDA-N
MOLT-4 leukemia = system: MOLT-4 leukemia
NCI-H226 lung = system: NCI-H226 lung
NCI-H23 lung = system: NCI-H23 lung
NCI-H460 lung = system: NCI-H460 lung
NCI/ADR-RES ovarian = system: NCI/ADR-RES ovarian
OVCAR-3 ovarian = system: OVCAR-3 ovarian
OVCAR-4 ovarian = system: OVCAR-4 ovarian
OVCAR-5 ovarian = system: OVCAR-5 ovarian
OVCAR-8 ovarian = system: OVCAR-8 ovarian
PC-3 prostate = system: PC-3 prostate
RPMI-8226 leukemia = system: RPMI-8226 leukemia
RXF 393 renal = system: RXF 393 renal
SF-268 CNS = system: SF-268 CNS
SF-295 CNS = system: SF-295 CNS
SF-539 CNS = system: SF-539 CNS
SK-MEL-2 melanoma = system: SK-MEL-2 melanoma
SK-MEL-28 melanoma = system: SK-MEL-28 melanoma
SK-MEL-5 melanoma = system: SK-MEL-5 melanoma
SK-OV-3 ovarian = system: SK-OV-3 ovarian
SN12C renal = system: SN12C renal
SNB-19 CNS = system: SNB-19 CNS
SNB-75 CNS = system: SNB-75 CNS
SW-620 colon = system: SW-620 colon
T-47D breast = system: T-47D breast
TK-10 renal = system: TK-10 renal
U251 CNS = system: U251 CNS
UACC-257 melanoma = system: UACC-257 melanoma
UACC-62 melanoma = system: UACC-62 melanoma
UO-31 renal = system: UO-31 renal
HCT-116 colon = system: HCT-116 colon
NCI-H522 lung = system: NCI-H522 lung
SR leukemia = system: SR leukemia

## CC(C)NCCCNc1c2ccccc2nc2cccc([N+](=O)[O-])c12
786-0 renal
  GI50: 10.8 nM
  TGI: 32.5 nM and 70.4 nM
A498 renal
  GI50: 12.3 nM
  TGI: 32.8 nM and 43.2 nM
A549 NSCLC
  TGI: 150 nM and 58.5 nM
ACHN renal
  TGI: 57 nM and 106 nM
BT-549 breast
  GI50: 22.2 nM
  TGI: 157 nM and 59.9 nM
CAKI-1 renal
  TGI: 239 nM
CCRF-CEM leukemia
  GI50: 11.8 nM
  TGI: 85.4 nM and 64.4 nM
COLO 205 colon
  TGI: 13 nM and 16.8 nM
EKVX NSCLC
  GI50: 37.2 nM
  TGI: 79.1 nM and 268 nM
HCC-2998 colon
  TGI: 16.5 nM
HCT-15 colon
  TGI: > 100 µM
HL-60(TB) leukemia
  GI50: 10.2 nM
HOP-62 NSCLC
  TGI: 80.9 nM and 24.4 nM
HOP-92 NSCLC
  TGI: 39.7 nM
HS 578T breast
  GI50: 21.8 nM
  TGI: 290 nM and 113 nM
HT29 colon
  TGI: 21.6 nM
IGROV1 ovarian
  TGI: 35.2 nM and 134 nM
K-562 leukemia
  TGI: 16.9 nM and 10.4 nM
KM12 colon
  TGI: 40.9 nM and 28.4 nM
LOX IMVI melanoma
  GI50: 15.3 nM
  TGI: 25.6 nM and 116 nM
M14 melanoma
  TGI: 24.4 nM
MALME-3M melanoma
  GI50: 12 nM
  TGI: 27.2 nM and 47.1 nM
MCF7 breast
  TGI: 43 nM
MDA-MB-231 breast
  GI50: 10.7 nM
  TGI: 47 nM and 114 nM
MDA-MB-435
  TGI: 22.5 nM and 18.6 nM
MDA-N
  TGI: 29.2 nM
MOLT-4 leukemia
  TGI: 25.4 nM and 16.9 nM
NCI-H226 lung
  TGI: 90.3 nM
NCI-H23 lung
  TGI: 9.08 nM
NCI-H460 lung
  TGI: 103 nM
NCI/ADR-RES ovarian
  GI50: 1860 nM
  TGI: 4.65 µM and 24.4 µM
OVCAR-3 ovarian
  TGI: 37 nM
OVCAR-4 ovarian
  TGI: 23.6 nM
OVCAR-5 ovarian
  TGI: 145 nM and 18.3 nM
OVCAR-8 ovarian
  TGI: 55.5 nM
PC-3 prostate
  TGI: 38 nM
RPMI-8226 leukemia
  TGI: 7.96 nM and 26.2 nM
RXF 393 renal
  TGI: 18.3 nM
SF-268 CNS
  GI50: 16.7 nM
  TGI: 32.3 nM and 182 nM
SF-295 CNS
  TGI: 45.1 nM and 173 nM
SF-539 CNS
  GI50: 14.2 nM
  TGI: 228 nM and 40.9 nM
SK-MEL-2 melanoma
  TGI: 29.9 nM
SK-MEL-28 melanoma
  GI50: 24.4 nM
  TGI: 289 nM and 74.8 nM
SK-MEL-5 melanoma
  TGI: 16.3 nM
SK-OV-3 ovarian
  TGI: 394 nM and 273 nM
SN12C renal
  TGI: 150 nM
SNB-19 CNS
  GI50: 11.2 nM
SNB-75 CNS
  GI50: 16.1 nM
  TGI: 97.4 nM and 45.2 nM
SW-620 colon
  TGI: 209 nM and 237 nM
T-47D breast
  TGI: 58.2 nM and 96.8 nM
TK-10 renal
  TGI: 463 nM and 70.8 nM
U251 CNS
  TGI: 119 nM and 49.6 nM
UACC-257 melanoma
  GI50: 19.4 nM
  TGI: 170 nM and 45.8 nM
UACC-62 melanoma
  TGI: 37.4 nM and 31 nM
UO-31 renal
  GI50: 30.6 nM
  TGI: 451 nM and 148 nM

## CC1CC(c2ccccc2)Nc2nc3ccccc3n21 (configuration not stated)
786-0 renal
  TGI: > 100000 nM
A498 renal
  TGI: > 100000 nM
A549 NSCLC
  TGI: > 100000 nM
ACHN renal
  TGI: > 100000 nM
BT-549 breast
  TGI: > 100000 nM
CAKI-1 renal
  TGI: > 100000 nM
CCRF-CEM leukemia
  TGI: > 100000 nM
COLO 205 colon
  TGI: > 100000 nM
EKVX NSCLC
  TGI: > 100000 nM
HCT-116 colon
  TGI: > 100 µM
HCT-15 colon
  TGI: > 100 µM
HL-60(TB) leukemia
  TGI: > 100 µM
HOP-62 NSCLC
  TGI: > 100000 nM
HOP-92 NSCLC
  TGI: > 100000 nM
HS 578T breast
  TGI: > 100000 nM
HT29 colon
  TGI: > 100000 nM
IGROV1 ovarian
  TGI: > 100000 nM
K-562 leukemia
  TGI: > 100000 nM
KM12 colon
  TGI: > 100000 nM
LOX IMVI melanoma
  TGI: > 100000 nM
M14 melanoma
  TGI: > 100000 nM
MALME-3M melanoma
  TGI: > 100000 nM
MCF7 breast
  TGI: > 100000 nM
MDA-MB-231 breast
  TGI: > 100000 nM
MDA-MB-435
  TGI: > 100000 nM
MDA-N
  TGI: > 100000 nM
MOLT-4 leukemia
  TGI: > 100000 nM
NCI-H226 lung
  TGI: > 100000 nM
NCI-H23 lung
  TGI: > 100000 nM
NCI-H460 lung
  TGI: > 100000 nM
NCI-H522 lung
  TGI: > 100 µM
NCI/ADR-RES ovarian
  TGI: > 100 µM
OVCAR-3 ovarian
  TGI: > 100000 nM
OVCAR-4 ovarian
  TGI: > 100000 nM
OVCAR-5 ovarian
  TGI: > 100000 nM
OVCAR-8 ovarian
  TGI: > 100000 nM
PC-3 prostate
  TGI: > 100000 nM
RPMI-8226 leukemia
  TGI: > 100000 nM
RXF 393 renal
  TGI: > 100000 nM
SF-268 CNS
  TGI: > 100000 nM
SF-295 CNS
  TGI: > 100000 nM
SF-539 CNS
  TGI: > 100000 nM
SK-MEL-2 melanoma
  TGI: > 100000 nM
SK-MEL-28 melanoma
  TGI: > 100000 nM
SK-MEL-5 melanoma
  TGI: > 100000 nM
SK-OV-3 ovarian
  TGI: > 100000 nM
SNB-19 CNS
  TGI: > 100 µM
SNB-75 CNS
  TGI: > 100000 nM
SR leukemia
  TGI: > 100 µM
SW-620 colon
  TGI: > 100000 nM
T-47D breast
  TGI: > 100000 nM
TK-10 renal
  TGI: > 100000 nM
U251 CNS
  TGI: > 100000 nM
UACC-257 melanoma
  TGI: > 100000 nM
UACC-62 melanoma
  TGI: > 100000 nM
UO-31 renal
  TGI: > 100000 nM
